From ChEMBL document CHEMBL1201862, “PubChem BioAssay data set” (2004)
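Following 48 hours of exposure in 96-well plates, responses at five concentrations were used to interpolate endpoints linearly. Here, GI50 denotes the concentration required for 50% inhibition of growth.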 Activity calls are given as the source filed them. Rule as the data show it: active = GI50 up to about 1.1 µM and inactive = higher.

Columns and labels:
Assay in all cases: growth of human tumour cells (NCI), 48 h
[1] = test system: ACHN
[2] = test system: CAKI-1
[3] = test system: CCRF-CEM
[4] = test system: HCT-15
[5] = test system: HOP-92
[6] = test system: HT-29
[7] = test system: KM12
[8] = test system: LOX IMVI
[9] = test system: M14
[10] = test system: MDA-MB-231
[11] = test system: NCI-H460
[12] = test system: OVCAR-8
[13] = test system: SF-268
[14] = test system: SK-OV-3
[15] = test system: SN12C
[16] = test system: SNB-75
[17] = test system: SR
[18] = test system: TK-10
[19] = test system: UACC-62
[20] = test system: SNB-19

SMILES	GI50 [1]	GI50 [2]	GI50 [3]	GI50 [4]	GI50 [5]	GI50 [6]	GI50 [7]	GI50 [8]	GI50 [9]	GI50 [10]	GI50 [11]	GI50 [12]	GI50 [13]	GI50 [14]	GI50 [15]	GI50 [16]	GI50 [17]	GI50 [18]	GI50 [19]	GI50 [20]
CC(=O)O[C@@H]1[C@H](OC2CCCCC2(c2ccccc2)c2ccccc2)O[N+]([O-])=CC12CCCCC2 (stereo partly drawn)	17.6 µM (inactive)	14.4 µM (inactive)	0.17 µM (active)	16 µM	24.5 µM (inactive)	18.6 µM (inactive)	17.2 µM (inactive)	22 µM (inactive)	18.7 µM (inactive)	15.4 µM (inactive)	18.2 µM (inactive)	25.5 µM (inactive)	18.6 µM (inactive)	13.4 µM (inactive)	19.6 µM (inactive)	15.9 µM (inactive)	32 µM (inactive)	16.7 µM (inactive)	17.7 µM (inactive)	–
Cc1ccc(C2SCC(=O)N2c2ccc(-n3c(-c4ccccc4)nc4ccccc4c3=O)cc2)cc1 (stereo not drawn)	16.6 µM (inactive)	30.1 µM (inactive)	8.18 µM (inactive)	6.65 µM	15.2 µM (inactive)	17.2 µM (inactive)	16.6 µM (inactive)	9.98 µM (inactive)	23.3 µM (inactive)	4.84 µM (inactive)	9.42 µM (inactive)	16.2 µM (inactive)	24.2 µM (inactive)	4.95 µM (inactive)	37.8 µM (inactive)	18.3 µM (inactive)	7.89 µM (inactive)	50.9 µM (inactive)	11.5 µM (inactive)	26.9 µM (inactive)
CC(=O)OCC1OC(n2c3c(cc(C#N)c2=S)CCC3)C(OC(C)=O)C(OC(C)=O)C1OC(C)=O (stereo not drawn)	> 100 µM (inactive)	> 100 µM (inactive)	> 100 µM (inactive)	> 100 µM	> 100 µM (inactive)	> 100 µM (inactive)	> 100 µM (inactive)	> 100 µM (inactive)	> 100 µM (inactive)	> 100 µM (inactive)	> 100 µM (inactive)	> 100 µM (inactive)	> 100 µM (inactive)	–	> 100 µM (inactive)	68.1 µM (inactive)	68.4 µM (inactive)	> 100 µM (inactive)	> 100 µM (inactive)	> 100 µM (inactive)
COc1c(Cl)ccc(Cl)c1-c1nnc(-c2c(Cl)c(Cl)c(Cl)c(Cl)c2-c2nc3cc(C(=O)c4ccccc4)ccc3[nH]2)o1	> 100 µM (inactive)	> 100 µM (inactive)	24.9 µM (inactive)	35.7 µM	53.7 µM (inactive)	57.8 µM (inactive)	45.5 µM (inactive)	54.1 µM (inactive)	50.9 µM (inactive)	43.8 µM (inactive)	–	> 100 µM (inactive)	57.1 µM (inactive)	> 100 µM (inactive)	64.7 µM (inactive)	33.5 µM (inactive)	25.4 µM (inactive)	> 100 µM (inactive)	–	62.2 µM (inactive)
COC(=O)/C=C\S/C(=C(/c1ccccc1)n1ccc(C(=O)OC)n1)c1ccccc1	7.48 µM (inactive)	> 100 µM (inactive)	–	> 100 µM	20.9 µM (inactive)	> 100 µM (inactive)	> 100 µM (inactive)	> 100 µM (inactive)	43.1 µM (inactive)	9.82 µM (inactive)	66.4 µM (inactive)	35.9 µM (inactive)	20.5 µM (inactive)	19.9 µM (inactive)	37.5 µM (inactive)	6.04 µM (inactive)	> 100 µM (inactive)	25.6 µM (inactive)	3.23 µM (inactive)	12.7 µM (inactive)
CC(=O)OCC(OC(C)=O)C(OC(C)=O)C(OC(C)=O)C(/C=N\Nc1nc2ccccc2c(=O)[nH]1)OC(C)=O (stereo not drawn)	> 100 µM (inactive)	> 100 µM (inactive)	> 100 µM (inactive)	> 100 µM	> 100 µM (inactive)	> 100 µM (inactive)	23.6 µM (inactive)	> 100 µM (inactive)	> 100 µM (inactive)	> 100 µM (inactive)	> 100 µM (inactive)	> 100 µM (inactive)	> 100 µM (inactive)	> 100 µM (inactive)	> 100 µM (inactive)	27.6 µM (inactive)	> 100 µM (inactive)	–	> 100 µM (inactive)	> 100 µM (inactive)
C[C@H]1[C@@H](c2ccccc2)O[B-](c2ccccc2)(c2ccccc2)[N+]1(C)C	34.3 µM (inactive)	34.3 µM (inactive)	> 100 µM (inactive)	38.4 µM	23.8 µM (inactive)	10 µM (inactive)	> 100 µM (inactive)	> 100 µM (inactive)	27.7 µM (inactive)	21.4 µM (inactive)	> 100 µM (inactive)	79.3 µM (inactive)	> 100 µM (inactive)	> 100 µM (inactive)	99.3 µM (inactive)	–	21.5 µM (inactive)	36.3 µM (inactive)	52 µM (inactive)	> 100 µM (inactive)
O=[N+]([O-])c1nccn1CCCNc1c2ccccc2[n+]([O-])c2ccccc12	> 100 µM (inactive)	> 100 µM (inactive)	> 100 µM (inactive)	> 100 µM	27.5 µM (inactive)	43.6 µM (inactive)	> 100 µM (inactive)	> 100 µM (inactive)	> 100 µM (inactive)	> 100 µM (inactive)	51.3 µM (inactive)	> 100 µM (inactive)	> 100 µM (inactive)	> 100 µM (inactive)	> 100 µM (inactive)	> 100 µM (inactive)	> 100 µM (inactive)	> 100 µM (inactive)	> 100 µM (inactive)	–
CC(=O)N(CCc1ccccc1)C(C)(C#N)c1ccccc1 (stereo not drawn)	> 100 µM (inactive)	> 100 µM (inactive)	> 100 µM (inactive)	> 100 µM	> 100 µM (inactive)	> 100 µM (inactive)	> 100 µM (inactive)	> 100 µM (inactive)	> 100 µM (inactive)	> 100 µM (inactive)	–	> 100 µM (inactive)	> 100 µM (inactive)	> 100 µM (inactive)	> 100 µM (inactive)	> 100 µM (inactive)	> 100 µM (inactive)	> 100 µM (inactive)	> 100 µM (inactive)	> 100 µM (inactive)
S=C(Nc1ccc2c(c1)oc1ccccc12)c1cccnc1	29.2 µM (inactive)	–	> 100 µM (inactive)	> 100 µM	25.3 µM (inactive)	> 100 µM (inactive)	> 100 µM (inactive)	> 100 µM (inactive)	> 100 µM (inactive)	> 100 µM (inactive)	24.6 µM (inactive)	26.2 µM (inactive)	29.5 µM (inactive)	20.4 µM (inactive)	> 100 µM (inactive)	21.2 µM (inactive)	> 100 µM (inactive)	30.5 µM (inactive)	39.5 µM (inactive)	21.3 µM (inactive)
COc1ccc(N2C(=O)C3c4[nH]c5ccc(C)cc5c4C4CCC(C)CC4C3C2=O)cc1 (stereo not drawn)	99.3 µM (inactive)	> 100 µM (inactive)	18.5 µM (inactive)	> 100 µM	76.2 µM (inactive)	> 100 µM (inactive)	–	> 100 µM (inactive)	> 100 µM (inactive)	15.1 µM (inactive)	> 100 µM (inactive)	> 100 µM (inactive)	37.8 µM (inactive)	25.3 µM (inactive)	> 100 µM (inactive)	–	23.2 µM (inactive)	34.4 µM (inactive)	52.7 µM (inactive)	61.2 µM (inactive)
C=CC(O)C#Cc1cnc(OC)nc1OC (stereo not drawn)	> 100 µM (inactive)	35.1 µM (inactive)	17.1 µM (inactive)	> 100 µM	> 100 µM (inactive)	> 100 µM (inactive)	86.7 µM (inactive)	> 100 µM (inactive)	> 100 µM (inactive)	> 100 µM (inactive)	> 100 µM (inactive)	> 100 µM (inactive)	> 100 µM (inactive)	–	> 100 µM (inactive)	65.8 µM (inactive)	> 100 µM (inactive)	> 100 µM (inactive)	> 100 µM (inactive)	> 100 µM (inactive)
COC12c3ccccc3-c3ccccc3C1[C@H]1C(=O)OC(=O)[C@H]12 (stereo partly drawn)	> 10 µM (inactive)	> 10 µM (inactive)	> 10 µM (inactive)	> 10 µM	> 10 µM (inactive)	> 10 µM (inactive)	> 10 µM (inactive)	> 10 µM (inactive)	> 10 µM (inactive)	> 10 µM (inactive)	> 10 µM (inactive)	> 10 µM (inactive)	> 10 µM (inactive)	> 10 µM (inactive)	> 10 µM (inactive)	> 10 µM (inactive)	> 10 µM (inactive)	> 10 µM (inactive)	–	> 10 µM (inactive)
O=C(NCc1cccs1)OC1CC2CCC1C2 (stereo not drawn)	> 100 µM (inactive)	> 100 µM (inactive)	> 100 µM (inactive)	> 100 µM	> 100 µM (inactive)	> 100 µM (inactive)	> 100 µM (inactive)	> 100 µM (inactive)	> 100 µM (inactive)	> 100 µM (inactive)	> 100 µM (inactive)	> 100 µM (inactive)	> 100 µM (inactive)	> 100 µM (inactive)	> 100 µM (inactive)	–	> 100 µM (inactive)	> 100 µM (inactive)	> 100 µM (inactive)	> 100 µM (inactive)
CC1CCC2CC1NC(=O)CCOCCC(=O)NC2(C)C (stereo not drawn)	–	–	> 100 µM (inactive)	> 100 µM	> 100 µM (inactive)	> 100 µM (inactive)	> 100 µM (inactive)	> 100 µM (inactive)	> 100 µM (inactive)	> 100 µM (inactive)	> 100 µM (inactive)	> 100 µM (inactive)	> 100 µM (inactive)	> 100 µM (inactive)	> 100 µM (inactive)	> 100 µM (inactive)	> 100 µM (inactive)	> 100 µM (inactive)	> 100 µM (inactive)	> 100 µM (inactive)
